According to PMC7827648 (Molecules, 2021):
Several values for one entry are separate records, joined by “and”; a condition that tells them apart may be missing. Identical values can stand only once. Like-named read-outs stand apart in the source and are kept apart here.

Tests used:
[1] = test system: HeLa (adenocarcinoma of the cervix uterus) cells; test: Cytotoxicity, MTT assay, HeLa cells; type: cell-based; conditions: Homo sapiens, read-out: IC50, 50% inhibition of the cell population growth, 72 h, mean ± SD
Experimental: (§1) The cytotoxicity of the newly synthesized Schiff bases was evaluated in vitro in a panel of cultured tumor cells, assessing cell viability at scalar concentrations of the test compounds (≤500 μM) by MTT (i.e., 3-(4,5-dimethylthiazol-2-yl)-2,5-diphenyltetrazolium bromide) and Alamar Blue assays, using doxorubicin as the positive controls. Most of the compounds were tested against RD (rhabdomyosarcoma), HCT116 (intestinal carcinoma), HeLa (adenocarcinoma of the cervix uterus) and A549 (lung adenocarcinoma) cell lines, whereas five representative compounds of the subsets were tested also against K562 (chronic myelogenous leukemia) tumor cells.
(§2) The experiments were carried out in triplicate.

[2] = test system: HCT116 (intestinal carcinoma) cells; test: Cytotoxicity, MTT assay, HCT116 cells; type: cell-based; conditions: Homo sapiens, HCT-116, read-out: IC50, 50% inhibition of the cell population growth, 72 h, mean ± SD
Experimental: as §1, §2

[3] = test system: RD (rhabdomyosarcoma) cells; parameters: method as in doi:10.1055/s-0036-1588486; conditions: read-out: IC50, 50% inhibition of the cell population growth, RD, data taken from ref [3]; cited from earlier work
[4] = test system: A549 (lung adenocarcinoma) cells; parameters: method as in doi:10.1055/s-0036-1588486; conditions: read-out: IC50, 50% inhibition of the cell population growth, A549, data taken from ref [3]; cited from earlier work
[5] = test system: HCT116 (intestinal carcinoma) cells; parameters: method as in doi:10.1055/s-0036-1588486; conditions: read-out: IC50, 50% inhibition of the cell population growth, HCT116, data taken from ref [3]; cited from earlier work
[6] = molecular target: human acetylcholinesterase (AChE) (Homo sapiens, UniProt P22303); test: biochemical; conditions: for inhibition mechanism on hAChE: Michaelis-Menten / Lineweaver-Burk plots; for Ki: complete kinetics, human AChE, read-out: inhibition constant (Ki) hAChE; for IC50: human recombinant AChE, pH 8.0, mean ± SD (n = 3), read-out: IC50 hAChE
Chain of human acetylcholinesterase (AChE) (P22303 32-614): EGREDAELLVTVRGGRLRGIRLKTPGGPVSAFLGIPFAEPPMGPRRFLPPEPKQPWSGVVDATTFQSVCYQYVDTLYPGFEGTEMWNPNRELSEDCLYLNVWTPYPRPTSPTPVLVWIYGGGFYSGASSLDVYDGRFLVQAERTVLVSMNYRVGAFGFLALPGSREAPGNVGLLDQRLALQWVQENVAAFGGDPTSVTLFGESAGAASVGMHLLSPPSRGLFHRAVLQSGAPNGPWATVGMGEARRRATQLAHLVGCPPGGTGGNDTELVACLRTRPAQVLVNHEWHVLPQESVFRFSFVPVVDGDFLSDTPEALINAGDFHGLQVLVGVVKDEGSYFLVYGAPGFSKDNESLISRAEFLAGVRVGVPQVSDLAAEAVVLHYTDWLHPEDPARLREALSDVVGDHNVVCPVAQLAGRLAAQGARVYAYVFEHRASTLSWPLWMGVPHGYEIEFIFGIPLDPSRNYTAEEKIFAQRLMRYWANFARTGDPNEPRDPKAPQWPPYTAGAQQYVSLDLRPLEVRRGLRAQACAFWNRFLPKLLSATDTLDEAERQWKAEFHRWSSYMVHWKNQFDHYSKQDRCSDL
Experimental: (§3) The ChE inhibition assay was carried out using the Ellman’s spectrophotometric method [23], as applied to the 96-well plate technique [24] on a Tecan Infinite M1000 Pro instrument (Cernusco s.N., Italy).

[7] = molecular target: T1, β-amyloid (Aβ)1–40 self-aggregation (Homo sapiens, UniProt P05067); test: Inhibition of self-induced Aβ40 aggregation, thioflavin T fluorescence; type: biochemical; conditions: for IC50: PBS pH 7.4, 2 h
T1 construct: self-aggregation of Aβ peptides 1–40 (Aβ40)
T1 sequence (P05067 672-711 limits assumed): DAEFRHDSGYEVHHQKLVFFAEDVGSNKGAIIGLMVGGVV
Experimental: Molecules able to inhibit simultaneously AChE and β-amyloid (Aβ) aggregation/neurotoxicity may have potential as drugs for the treatment of AD [14]. Herein, the new DHPPIQ derivatives were evaluated for the inhibitory effects on the self-aggregation of Aβ peptides 1–40 (Aβ40), through a test based on the measurement of thioflavin T (ThT) fluorescence. Quercetin, which is a strong inhibitor of in vitro Aβ self-aggregation, was used as a positive control.
Each compound was initially tested at a 100-μM concentration. […] […].
According to an already reported 96-well plate procedure, the test compounds at 100 μM were incubated with Aβ40 (30 μM) and 2% HFIP (1,1,1,3,3,3-hexafluoro-2-propanol), used as aggregation enhancer in PBS pH 7.4 for 2 h at room temperature. After the addition of ThT, the fluorescence was read at the 440/485 nm excitation/emission wavelength. Experiments were performed in triplicate, and the % inhibition values calculated as mean ± SD.

[8] = in vitro; conditions: human
[9] = molecular target: T2, human MAO B (Homo sapiens, UniProt P27338); test: biochemical; conditions: for inhibition at 10 µM: mean ± SD (n = 3), read-out: % inhibition hMAO B
T2 construct: host or cells: baculovirus-infected insect cells (microsomes)
T2 sequence (P27338 1-520): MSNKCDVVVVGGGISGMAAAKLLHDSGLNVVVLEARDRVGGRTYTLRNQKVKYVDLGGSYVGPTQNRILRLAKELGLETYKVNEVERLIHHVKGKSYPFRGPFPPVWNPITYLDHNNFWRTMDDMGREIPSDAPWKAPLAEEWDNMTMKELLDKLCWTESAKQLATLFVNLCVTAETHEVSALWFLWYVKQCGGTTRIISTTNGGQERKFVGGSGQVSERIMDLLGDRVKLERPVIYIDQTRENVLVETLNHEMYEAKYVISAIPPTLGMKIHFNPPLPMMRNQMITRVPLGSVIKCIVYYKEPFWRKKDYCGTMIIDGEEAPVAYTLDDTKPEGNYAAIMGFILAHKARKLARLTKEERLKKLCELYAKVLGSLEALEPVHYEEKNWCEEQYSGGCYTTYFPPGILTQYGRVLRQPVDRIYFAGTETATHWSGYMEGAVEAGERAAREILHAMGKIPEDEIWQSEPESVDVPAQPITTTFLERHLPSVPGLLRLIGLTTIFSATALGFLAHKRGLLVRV
Experimental: (§4) The inhibition of human recombinant MAO A (250 U/mg) and B (59 U/mg; microsomes from baculovirus-infected insect cells) was evaluated using the reported 96-well plate technique [12]. on a Tecan Infinite M1000 Pro instrument (Cernusco s.N., Italy). […] After addition of the enzyme and 30 min of incubation, NaOH was added and the fluorescence read at the 310/400 excitation/emission wavelength.

[10] = molecular target: T3, human MAO A (Homo sapiens, UniProt P21397); test: biochemical; conditions: for IC50: human recombinant MAO A, kynuramine, read-out: IC50 hMAO A; for inhibition at 10 µM: read-out: % inhibition hMAO A
T3 construct: host or cells: baculovirus-infected insect cells (microsomes)
T3 sequence (P21397 1-527): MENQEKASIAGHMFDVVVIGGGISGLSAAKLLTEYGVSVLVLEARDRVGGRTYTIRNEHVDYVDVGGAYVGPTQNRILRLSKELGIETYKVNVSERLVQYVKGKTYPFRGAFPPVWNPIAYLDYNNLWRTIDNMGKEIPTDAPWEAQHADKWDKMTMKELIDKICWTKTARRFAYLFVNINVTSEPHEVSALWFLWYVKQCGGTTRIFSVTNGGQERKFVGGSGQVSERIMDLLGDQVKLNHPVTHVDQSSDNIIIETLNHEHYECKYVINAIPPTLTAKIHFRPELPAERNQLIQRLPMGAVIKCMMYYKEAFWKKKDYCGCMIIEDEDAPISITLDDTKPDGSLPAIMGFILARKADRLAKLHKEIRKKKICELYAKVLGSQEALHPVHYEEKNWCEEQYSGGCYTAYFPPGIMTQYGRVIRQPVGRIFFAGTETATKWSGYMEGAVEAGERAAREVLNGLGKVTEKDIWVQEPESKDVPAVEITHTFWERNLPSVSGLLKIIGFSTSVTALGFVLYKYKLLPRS
Experimental: as §4

[11] = test system: RD (rhabdomyosarcoma) cells; test: Cytotoxicity, MTT assay, RD cells; type: cell-based; conditions: Homo sapiens, read-out: IC50, 50% inhibition of the cell population growth, 72 h, mean ± SD
Experimental: as §1, §2

[12] = molecular target: T4, human butyrylcholinesterase (BChE) (Homo sapiens, UniProt P06276); test: BChE inhibition, Ellman's method; type: biochemical; conditions: mean ± SD (n = 3), n.i. = no inhibition; for inhibition at 10 µM: read-out: % inhibition hBChE; for % inhibition hBChE: at 10 μM
T4 construct: BChE from human serum (50 U/mg); from tissue; host or cells: human serum
T4 sequence (P06276 29-602): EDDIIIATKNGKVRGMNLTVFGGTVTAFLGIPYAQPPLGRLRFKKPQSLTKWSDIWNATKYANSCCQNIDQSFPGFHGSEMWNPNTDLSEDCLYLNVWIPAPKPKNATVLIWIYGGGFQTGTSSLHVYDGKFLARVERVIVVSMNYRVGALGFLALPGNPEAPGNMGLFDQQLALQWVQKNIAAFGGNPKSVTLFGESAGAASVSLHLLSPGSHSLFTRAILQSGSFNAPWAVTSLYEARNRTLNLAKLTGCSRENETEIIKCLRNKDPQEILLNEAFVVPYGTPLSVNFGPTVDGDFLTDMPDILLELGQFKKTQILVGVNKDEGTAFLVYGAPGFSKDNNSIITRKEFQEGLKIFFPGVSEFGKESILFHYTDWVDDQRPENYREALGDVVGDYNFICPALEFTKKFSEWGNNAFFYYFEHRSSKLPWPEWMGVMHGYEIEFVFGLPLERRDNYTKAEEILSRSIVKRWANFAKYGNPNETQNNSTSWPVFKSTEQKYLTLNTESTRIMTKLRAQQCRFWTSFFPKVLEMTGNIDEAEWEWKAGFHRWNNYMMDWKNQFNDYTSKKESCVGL
Experimental: as §3

[13] = test system: A549 (lung adenocarcinoma) cells; test: Cytotoxicity, MTT assay, A549 cells; type: cell-based; conditions: Homo sapiens, read-out: IC50, 50% inhibition of the cell population growth, 72 h, mean ± SD
Experimental: as §1, §2

[14] = test system: K562 (chronic myelogenous leukemia) cells; test: Cytotoxicity, Alamar Blue (resazurin) assay, K562 cells; type: cell-based; conditions: Homo sapiens, read-out: IC50, 50% inhibition of the cell population growth, 72 h, mean ± SD
Experimental: as §1, §2

[15] = Aβ40 30 μM, 2% HFIP, ThT, mean ± SD (n = 3)

| Structure (SMILES) | IC50 [1] | IC50 [2] | melting point | IC50 [6] | IC50 [7, 15] | inhibition at 10 µM [9] | IC50 [11] | IC50 [13] | IC50 at 72 h ([8]; SH-SY5Y neuroblastoma cells) | further results |
| --- | --- | --- | --- | --- | --- | --- | --- | --- | --- | --- |
| CCOc1ccc(-c2c(/C=N/N=C/c3cn4c(c3-c3ccc(OCC)c(OCC)c3)-c3cc(OCC)c(OCC)cc3CC4)cn3c2-c2cc(OCC)c(OCC)cc2CC3)cc1OCC [Compound 18, (1E,2E)-1,2-bis((1-[3,4-diethoxyphenyl]-8,9-diethoxy-5,6-dihydropyrrolo[2,1-a]isoquinolin-2-yl)methylene)hydrazine] | 302 ± 23 µM | > 500 µM | 230 to 232 °C | – | – | – | – | – | – | – |
| CCOc1ccc(-c2c(C=O)c(-c3ccccc3)n3c2-c2cc(OCC)c(OCC)cc2CC3)cc1OCC [Compound 2] | – | – | – | – | – | – | – | – | – | IC50 [3]: 365 ± 23 µM; IC50 [4]: 229 ± 21 µM; IC50 [5]: 183 ± 0.1 µM |
| COc1cc2c(cc1OC)-c1c(-c3ccc(Cl)cc3)c(/C=N/c3ccc(/N=C/c4cn5c(c4-c4ccc(Cl)cc4)-c4cc(OC)c(OC)cc4CC5)cc3)cn1CC2 [Compound 14, (1E,1’E)-N,N’-(1,4-phenylene)bis(1-(1-[4-chlorophenyl]-8,9-dimethoxy-5,6-dihydropyrrolo[2,1-a]isoquinolin-2-yl)methanimine)] | 310 ± 12 µM | 390 ± 16 µM | – | 7.3 ± 0.74 µM | 13 ± 1 µM | 19 ± 5% | 269 ± 11 µM | > 500 µM | – | hAChE potency relative to the reference compound galantamine ([6]; 14 vs galantamine): tenfold less potent; inhibition mechanism on hAChE [6]: noncompetitive/mixed-type inhibition mechanism; Ki [6]: 4.69 µM; fold stronger inhibition of Aβ40 aggregation than the respective mono-DHPPIQ Schiff base 9 ([7]; ratio of IC50 values, 14 vs 9): 3.5 fold; IC50 at 72 h [8]: 29.3 ± 0.1 µM; IC50 ([10]; mean ± SD (n = 3)): 12.1 ± 2.3 µM; inhibition at 10 µM [12]: 13 ± 1% |
| CCOc1ccc(-c2c(/C=N/c3ccc(OC)cc3)c(-c3ccccc3)n3c2-c2cc(OCC)c(OCC)cc2CC3)cc1OCC [Compound 8, (E)-1-(1-(3,4-diethoxyphenyl)-8,9-diethoxy-3-phenyl-5,6-dihydropyrrolo[2,1-a]isoquinolin-2-yl)-N-(4-methoxyphenyl)methanimine] | 304 ± 10 µM | 286 ± 5 µM | 93 to 95 °C | – | – | – | 412 ± 20 µM | – | – | – |
| COc1ccc(/N=C/c2cn3c(c2-c2ccc(Cl)cc2)-c2cc(OC)c(OC)cc2CC3)cc1 [Compound 9, (E)-1-(1-(4-chlorophenyl)-8,9-dimethoxy-5,6-dihydropyrrolo[2,1-a]isoquinolin-2-yl)-N-(4-methoxyphenyl)methanimine] | 35.2 ± 0.7 µM | 37.2 ± 2.4 µM | – | 29.3 ± 2.3 µM | 46 ± 5 µM | 29 ± 5% | 76.4 ± 4.7 µM | 99.4 ± 1.1 µM | 22.1 ± 0.8 µM | IC50 [14]: 105 ± 8 µM; inhibition at 10 µM ([10]; at 10 μM, mean ± SD (n = 3)): 39 ± 2%; inhibition at 10 µM [12]: 13 ± 4% |
| COc1ccc(/N=C/c2c(-c3ccc(F)cc3)c3n(c2-c2ccccc2)CCc2cc(OC)c(OC)cc2-3)cc1 [Compound 12, (E)-1-(1-(4-fluorophenyl)-8,9-dimethoxy-3-phenyl-5,6-dihydropyrrolo[2,1-a]isoquinolin-2-yl)-N-(4-methoxyphenyl)methanimine] | 450 ± 19 µM | 148 ± 14 µM | 195 to 197 °C | – | – | – | > 500 µM | > 500 µM | – | – |
| COc1ccc(/N=C/c2cn3c(c2-c2ccc(F)cc2)-c2cc(OC)c(OC)cc2CC3)cc1 [Compound 11, (E)-1-(1-(4-fluorophenyl)-8,9-dimethoxy-5,6-dihydropyrrolo[2,1-a]isoquinolin-2-yl)-N-(4-methoxyphenyl)methanimine] | 87.2 ± 1.1 µM | 114 ± 4 µM | – | – | 54 ± 2.2 µM | 22 ± 4% | 145 ± 1 µM | 153 ± 2.2 µM | 56.1 ± 2.4 µM | inhibition at 10 µM ([6]; at 10 μM, mean ± SD (n = 3), read-out: % inhibition hAChE): 40 ± 2%; IC50 ([10]; mean ± SD (n = 3)): 18.1 ± 1.2 µM; % inhibition hBChE [12]: n.i. |
| CCOc1ccc(-c2c(CN(C)CCNC)cn3c2-c2cc(OCC)c(OCC)cc2CC3)cc1OCC.O=C(O)/C=C/C(=O)O [Compound 17a, 2-(([1-(3,4-diethoxyphenyl]-8,9-diethoxy-5,6-dihydropyrrolo[2,1-a]isoquinolin-2-yl)methyl)(methyl)amino)-N-methylethan-1-aminium (E)-3-carboxyacrylate] | 29.7 ± 0.9 µM | 18.6 ± 0.4 µM | – | 16 µM and 16.4 µM | – | – | 10.1 ± 0.1 µM | 35.9 ± 2.4 µM | 17.9 ± 0.1 µM | inhibition mechanism on hAChE [6]: noncompetitive/mixed-type inhibition mechanism; Ki [6]: 13.6 ± 0.1 µM; inhibition at 100 µM ([7]; at 100 μM, Aβ40 30 μM, 2% HFIP, ThT, mean ± SD (n = 3)): 31 ± 3%; IC50 [9]: 14.3 ± 1.4 µM; IC50 [14]: 46.6 ± 1.5 µM; inhibition at 10 µM [10]: 38 ± 5%; % inhibition hBChE [12]: n.i. |
